Data from US20110218188A1, “SUBSTITUTED (PYRIDYL)-AZINYLAMINE DERIVATIVES AS FUNGICIDES” (priority 2008, published 2011).
Marks after values point to notes of the source that are not given here.

test: Measurement of logP values by HPLC on reversed phase columns (EEC directive 79/831 Annex V.A8); type: physicochemical; settings: pH 2.7

Row | Compound | logP | chromatographic logP
1 | CCC(=NOCCN(C)C)c1cc(-c2ncnc(Nc3cccc(Cl)c3)n2)ccn1 (mixture of isomers) [B49] | 2.06 | 
2 | CN(CCC#N)C(=O)c1cc(-c2ncnc(Nc3cc(F)ccc3F)n2)ccn1 [Example B237] | 2.1 | 
3 | O=C(c1cc(Nc2nccc(-c3ccnc(C(=O)N4CCOCC4)c3)n2)ccn1)N1CCOCC1 [Example A23] | 0.92 | 
4 | CCC(=NOCc1c(Cl)cccc1Cl)c1cc(-c2ncnc(Nc3cccc(Cl)c3)n2)ccn1 (mixture of isomers) [B69] | 6.53 | 
5 | CCCN(C)C(=O)c1cc(-c2ncnc(Nc3cccc(F)c3)n2)ccn1 [Example B3] | 2.72 | 
6 | CC1CCCN(C(=O)c2cc(-c3ncnc(Nc4cccc(Cl)c4)n3)ccn2)C1C (stereo not shown) [Example B137] | 3.78 | 
7 | CN(C)C(=O)c1cc(-c2ncnc(Nc3ccc(Cl)c(C(F)F)c3)n2)ccn1 [Example B385] | 2.59 | 
8 | CCC(=O)O/N=C(/N)c1cc(-c2ncnc(Nc3cccc(Cl)c3)n2)ccn1 [B108] | 3.33 | 
9 | O=C(NCCN1CCOCC1)c1cc(-c2ncnc(Nc3cccc(Cl)c3)n2)ccn1 [Example B105] | 1.68 | 
10 | CC(=NNCC(F)(F)F)c1cc(-c2ncnc(Nc3cccc(Cl)c3)n2)ccn1 [Example B76] | 3.58 | 
11 | O=C(c1cc(-c2ccnc(Nc3ccnc(Cl)c3)n2)ccn1)N1CC=CCC1 [Example A2] | 2.2 | 
12 | NC(=S)c1cc(-c2ncnc(Nc3cccc(F)c3)n2)ccn1 [B321] | 2.57 | 
13 | CC1CC(C)CN(C(=O)c2cc(-c3ncnc(Nc4cccc(Cl)c4)n3)ccn2)C1 (stereo not shown) [Example B155] | 3.96 | 
14 | CCN(C)C(=S)c1cc(-c2ncnc(Nc3cccc(COC)c3)n2)ccn1 [Example B248] | 2.66 | 
15 | CCC(=NO)c1cc(-c2ncnc(Nc3cccc(Cl)c3)n2)ccn1 (mixture of isomers) [Example B64] | 3.24 | 
16 | O=C(c1cc(-c2ncnc(Nc3cccc(Cl)c3)n2)ccn1)N1CCCCC1 [Example B115] | 3.1 | 
17 | CCN(CC)C(=O)c1cc(-c2ncnc(Nc3ccc(F)c(Cl)c3)n2)ccn1 [Example B202] | 3.13 | 

Row | Compound | logP | chromatographic logP
18 | CCN(C)C(=O)c1cc(-c2ccnc(Nc3ccnc(Cl)c3)n2)ccn1 [Example A17, 4-{2-[(2-chloropyridin-4-yl)amino]pyrimidin-4-yl}-N-ethyl-N-methylpyridine-2-carboxamide] |  | 1.91
19 | O=C(NC1CCC1)c1cc(-c2ncnc(Nc3cccc(Cl)c3)n2)ccn1 [Example B113] | 3.89 | 
20 | COCCN(C)C(=O)c1cc(-c2ncnc(Nc3cccc(F)c3)n2)ccn1 [Example B9] | 2.26 | 
21 | CC1CCCCN1C(=O)c1cc(-c2ncnc(Nc3cccc(Cl)c3)n2)ccn1 (stereo not shown) [Example B142] | 3.39 | 
22 | O=C(NCCCN1CCCCCC1=O)c1cc(Nc2nccc(-c3ccnc(C(=O)NCCCN4CCCCCC4=O)c3)n2)ccn1 [Example A21] | 2.33 | 
23 | COCC(=O)ON=C(N)c1cc(-c2ncnc(Nc3cccc(Cl)c3)n2)ccn1 [Example B104, 4-{4-[(3-chlorophenyl)amino]-1,3,5-triazin-2-yl}-N′-[(methoxyacetyl)oxy]pyridine-2-carboximidamide] |  | 2.92
24 | CCC(COC)NC(=O)c1cc(-c2ncnc(Nc3cccc(SC)c3)n2)ccn1 (stereo not shown) [B216] | 3.69 | 
25 | O=C(c1cc(-c2ncnc(Nc3cccc(Cl)c3)n2)ccn1)N1CCC(O)CC1 [Example B173] | 2.04 | 
26 | COCC(C)NC(=O)c1cc(-c2ncnc(Nc3cccc(SC)c3)n2)ccn1 (stereo not shown) [B212] | 3.31 | 
27 | CN(CC1CCCO1)C(=O)c1cc(Nc2nccc(-c3ccnc(C(=O)N(C)CC4CCCO4)c3)n2)ccn1 (stereo not shown) [Example A16] | 1.35 | 
28 | CCC(=NOCc1ccc(OC)cc1)c1cc(-c2ncnc(Nc3cccc(Cl)c3)n2)ccn1 (mixture of isomers) [B68] | 5.46 | 
29 | CN(C)C(=O)c1cc(-c2ncnc(Nc3ccc(F)c(Cl)c3)n2)ccn1 [Example B205] | 2.47 | 
30 | CCN(C)C(=O)c1cc(-c2ncnc(Nc3cccc(SC)c3)n2)ccn1 [Example B222] | 2.6 | 
31 | O=C(c1cc(-c2ncnc(Nc3cccc(Cl)c3)n2)ccn1)N1CCCC(CO)C1 (stereo not shown) [Example B145] | 2.3 | 
32 | O=CN1CCN(C(=O)c2cc(-c3ncnc(Nc4cccc(Cl)c4)n3)ccn2)CC1 [Example B163] | 2.04 | 
33 | COCC(C)NC(=O)c1cc(-c2ncnc(Nc3ccc(C)c(Cl)c3)n2)ccn1 (stereo not shown) [Example B225] | 3.8 | 

Continued, values first:

Row | logP | chromatographic logP | Compound
34 | 1.19 |  | CC(C)CN(C)C(=O)c1cc(-c2ncnc(Nc3ccncc3)n2)ccn1 [Example C18]
35 | 2.02 |  | COC(=O)c1cc(-c2ncnc(Nc3ccnc(Cl)c3)n2)ccn1 [Example C25]
36 | 2.37 |  | CC(C)N(C)C(=O)c1cc(-c2ncnc(Nc3ccsc3)n2)ccn1 [Example C20]
37 | 3.02 |  | CCN(CC)C(=S)c1cc(-c2ncnc(Nc3ccsc3)n2)ccn1 [Example C22]
38 | 2.45 |  | CN(CC(F)F)C(=O)c1cc(-c2ncnc(Nc3cccc(C#N)c3)n2)ccn1 [Example B369]
39 | 3.04 |  | CCN(C)C(=S)c1cc(-c2ncnc(Nc3ccc(F)c(C(F)F)c3)n2)ccn1 [Example B333]
40 | 2.45 |  | CCCN(C)C(=O)c1cc(-c2ncnc(Nc3cccc(C#N)c3)n2)ccn1 [Example B293]
41 | 2.37 |  | COCC(=O)N(c1ccccc1)c1ncnc(-c2ccnc(C(=O)N(C)CC3CC3)c2)n1 [Example B401]
42 | 2.78 |  | CCCCN(CC)C(=O)c1cc(-c2ncnc(Nc3ccc(OC)nc3)n2)ccn1 [Example C11]
43 |  | 2.98 | C#CCN(c1ccccc1)c1ncnc(-c2ccnc(C(=O)N(C)CC3CC3)c2)n1 [Example B402, N-(cyclopropylmethyl)-N-methyl-4-{4-[phenyl(prop-2-yn-1-yl)amino]-1,3,5-triazin-2-yl}pyridine-2-carboxamide]
44 | 3.4 |  | CCCN(C)C(=S)c1cc(-c2ncnc(Nc3ccc(F)c(C(F)F)c3)n2)ccn1 [Example B334]
45 | 3.35 |  | CN(CC(F)F)C(=S)c1cc(-c2ncnc(Nc3ccc(F)c(C(F)F)c3)n2)ccn1 [Example B342]
46 | 3.15 |  | CCOc1cccc(Nc2ncnc(-c3ccnc(C(=S)N(C)CC)c3)n2)c1 [Example B255]
47 | 2.78 |  | CC(C)N(C)C(=O)c1cc(-c2ncnc(Nc3ccc(F)c(F)c3)n2)ccn1 [Example B383]
48 | 3.23 |  | CCCN(C)C(=O)c1cc(-c2ncnc(Nc3ccc(Cl)c(C(F)F)c3)n2)ccn1 [Example B387]
49 | 3.23 |  | CN(CC1CC1)C(=S)c1cc(-c2ncnc(Nc3ccccc3)n2)ccn1 [Example B337]
50 | 2.78 |  | CC(C)N(C)C(=O)c1cc(-c2ncnc(Nc3cccc(OC(F)F)c3)n2)ccn1 [Example B302]
51 | 2.44 |  | CCN(C)C(=O)c1cc(-c2ncnc(Nc3cccc(C(F)F)c3)n2)ccn1 [Example B400]
52 | 1.88 |  | CN(C)C(=O)c1cc(-c2ncnc(Nc3cccc(C#N)c3)n2)ccn1 [Example B294]
53 | 3.19 |  | CN(CC(F)F)C(=O)c1cc(-c2ncnc(Nc3ccc(Cl)c(C(F)F)c3)n2)ccn1 [Example B392]

same assay, conditions: pH 7.8

Row | logP | Compound
54 | 2.02^[c] | COC(=O)c1cc(-c2ncnc(Nc3ccc(OC)c(OC)c3)n2)ccn1 [B422]
55 | 2.77^[c] | CCCN(CCC)C(=O)c1cc(-c2ncnc(Nc3ccc(OC)nc3)n2)ccn1 [Example C3]
